Results on 2 compounds are retold here after patent publication US20210395327A1, “Growth Hormone-Releasing Hormone Antagonists and Uses Thereof” (United States Government As Represented By The Department …, priority 2019, published 2021).

Assay [1] has as its system KATOIII stomach cancer cells. Nature of the assay: In vitro cell viability, KATOIII. It is filed as cell-based, human. To be noted: antagonist 5 μM for 72 h, cell proliferation assay; MIA602 = 1. The protocol: The inhibitory effects of the various synthesized GHRH antagonists were tested in cell proliferation assays in various human cancer cell lines including stomach cancer (KATOIII, N87), colon cancer (HT-29), urothelial cancer (J82, RT4), pancreatic cancer (PANC-1, CFPAC-1), prostatic cancer (PC3), breast cancer (MX-1, HCC1806), ovarian cancer (SK-OV-3, OVCAR-3) and lung cancer (HCC827, H460).
Cell culture. Human cancer cell lines including pancreatic (PANC-1 and CFPAC-1), lung (HCC827 and H460), stomach (NCI-N87 and KATOIII), urothelial (J82, RT4), prostatic (PC3), breast (MX-1 and HCC 1806), colorectal (HT-29), and ovarian (SK-OV-3 and OVCAR-3) were obtained from the American Type Culture Collection (ATCC) and cultured at 37° C. in a humidified 95% air/5% CO2 atmosphere in the medium recommended by ATCC.
In vitro cell viability. Cell viability was analyzed as follows: cancer cells including pancreatic (PANC-1 and CFPAC-1), lung (HCC827 and H460), stomach (NCI-N87 and KATOIII), urothelial (J82, RT4), prostatic (PC3) and breast (MX-1 and HCC 1806), colorectal (HT-29) and ovarian (SK-OV-3 and OVCAR-3) were grown on 96 well plates to ˜60% confluence, the cells were starved for 24 h in culture medium containing 0.5% FBS. Cells were then treated with GHRH antagonists MIA602 AVR compounds at concentrations of 1, 2.5 or 5 μM, or vehicle (0.1% DMSO) in quintuplicates for 72 hours. The medium was replaced every 48 hours. Cell viability was measured using CellTiter 96 aqueous one solution kit (Promega). Inhibitory effects of tested AVR compounds in comparison to that of MIA602 are presented as inhibitory potency.
Inhibitory effects of selected AVR compounds in comparison to that of MIA602 are presented as inhibitory potency (e.g., percentage of inhibition). […] The cell lines tested including lung cancer HCC827 (FIG. 2A), pancreatic cancer CFPAC-1 (FIG. 2B), stomach cancer N87 (FIG. 2C), colon cancer HT-29 (FIG. 2D), breast cancers MX-1 and HCC1806 (FIGS. 2 E, F). Based on the results of cell proliferation assay after cancer cells were treated with antagonist at concentration of 5 μM for 72H, the relative inhibitory potency of AVR antagonists in comparison to MIA-602 is summarized in Table 3 A and B. Over 60 AVR compounds were tested in 12 cancer cell lines.

Assay [2] addresses T1, membrane GHRH-receptors on human anterior pituitary cells (Homo sapiens, UniProt Q02643).
T1 construct: Human pituitary was purchased from the National Hormone and Peptide Program; tissue National Hormone and Peptide Program; host or cells: human pituitary (membrane fractions)
T1 sequence (Q02643 23-423): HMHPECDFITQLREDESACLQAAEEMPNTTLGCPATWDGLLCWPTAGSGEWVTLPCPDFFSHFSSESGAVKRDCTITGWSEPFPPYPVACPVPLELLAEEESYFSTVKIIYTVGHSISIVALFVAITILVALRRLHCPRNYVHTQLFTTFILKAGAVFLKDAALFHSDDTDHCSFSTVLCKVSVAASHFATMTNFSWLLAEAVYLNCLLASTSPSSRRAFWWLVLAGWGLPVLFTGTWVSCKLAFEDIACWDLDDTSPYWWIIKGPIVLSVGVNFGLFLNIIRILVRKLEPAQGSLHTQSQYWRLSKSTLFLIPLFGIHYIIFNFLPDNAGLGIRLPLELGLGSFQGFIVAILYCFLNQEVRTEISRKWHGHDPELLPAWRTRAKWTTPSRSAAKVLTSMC
Nature of the assay: Receptor binding, displacement of 125I-[His1,Nle27]-hGH-RH(1-32)NH2 on human pituitary membranes. To be noted: membrane receptors on human anterior pituitary cells; mean of two to three determinations; read-out: IC50. On the procedure: Receptor binding affinities in vitro. Preparation of human pituitary membrane fractions and receptor binding of analogs of GH-RH were performed (Halmos G, Rekasi Z, Szoke B, Schally A V. (1993) Receptor 3:87-97). Human pituitary was purchased from the National Hormone and Peptide Program. […] Relative affinities compared to hGH-RH(1-29)NH2 were calculated as the ratio of IC50 (dose causing 50% inhibition of specific binding to receptors) of the tested peptides to the IC50 of hGH-RH(1-29)NH2. The values were calculated from technical duplicate tubes.
Nineteen new AVR analogs of GHRH were tested in the receptor binding assay. Table 6 presents the IC50 values of GHRH antagonists to membrane GHRH-receptors binding on human anterior pituitary cells.
Background: Loss of bound radioactivity is the signal in a displacement assay; it reports binding, not function.

Non-standard residues stand in square brackets, D forms with d. Residues, ends and D or L forms follow the SMILES beside them. *: point of attachment. Phenylacetyl(2,3,4,5,6-F5) = O=C(Cc1c(F)c(F)c(F)c(F)c1F)*; Phe(4-Cl) = N[C@@H](Cc1ccc(Cl)cc1)C(=O)O; hArg = N=C(N)NCCCC[C@H](N)C(=O)O; 12Ado = NCCCCCCCCCCCC(=O)O; Nle = CCCC[C@H](N)C(=O)O; Abu = CC[C@H](N)C(=O)O; PhAc = O=C(Cc1ccccc1)*; Aoc = NCCCCCCCC(=O)O

As a reminder, the IC50 is the concentration that gives 50% inhibition. Regarding `CCCC[C@H](NC(=O)[C@@H](NC(=O)[C@H](CC(=O)O)NC(=O)[C@H](CCC(N)=O)NC(=O)[C@H](CC(C)C)NC(=O)[C@H](CC(C)C)NC(=O)[C@H](CCCCN)NC(=O)[C@H](CCCNC(=N)N)NC(=O)[C@H](C)NC(=O)[C@H](CO)NC(=O)[C@H](CC(C)C)NC(=O)[C@H](CCC(N)=O)NC(=O)[C@H](CC)NC(=O)[C@H](CC(C)C)NC(=O)[C@@H](NC(=O)[C@H](CCCCN)NC(=O)[C@H](CCCNC(=N)N)NC(=O)[C@H](Cc1ccc(OC)cc1)NC(=O)[C@H](CCCCNC(=N)N)NC(=O)[C@H](CC(N)=O)NC(=O)[C@@H](NC(=O)[C@H](Cc1ccc(Cl)cc1)NC(=O)[C@@H](NC(=O)[C@H](C)NC(=O)[C@H](CC(=O)O)NC(=O)[C@@H](CCCNC(=N)N)NC(=O)[C@H](Cc1ccc(O)cc1)NC(=O)CCCCCCCCCCCNC(=O)Cc1c(F)c(F)c(F)c(F)c1F)[C@@H](C)CC)[C@@H](C)O)C(C)C)[C@@H](C)CC)C(=O)N[C@H](CCCNC(=N)N)C(=O)N[C@@H](CCCCNC(=N)N)C(=O)NCCCCCCCC(=O)NC` [AVR-322, 5FPhAC-Ada-Tyr-DArg-Asp-Ala-Ile-Cpa-Thr-Asn-Har-Tyr(Me)-Arg-Lys-Val-Leu-Abu-Gln-Leu-Ser-Ala-Arg-Lys-Leu-Leu-Gln-Asp-Ile-Nle-DArg-Har-Aoc-NHCH3] ({Phenylacetyl(2,3,4,5,6-F5)-12Ado}-Y[dR]DAI[Phe(4-Cl)]TN[hArg]Y(Me)RKVL[Abu]QLSARKLLQDI[Nle][dR][hArg][Aoc]-NHMe), the “relative inhibitory potency in comparison to MIA-602, Stomach KATOIII” value in assay [1] was 1.296. In addition, the IC50 in assay [2] came out at 0.25 nM.
In the same order, the values of `CCCC[C@H](NC(=O)[C@@H](NC(=O)[C@H](CC(=O)O)NC(=O)[C@H](CCC(N)=O)NC(=O)[C@H](CC(C)C)NC(=O)[C@H](CC(C)C)NC(=O)[C@H](CCCCN)NC(=O)[C@H](CCCNC(=N)N)NC(=O)[C@H](C)NC(=O)[C@H](CO)NC(=O)[C@H](CC(C)C)NC(=O)[C@H](CCC(N)=O)NC(=O)[C@H](CC)NC(=O)[C@H](CC(C)C)NC(=O)[C@@H](NC(=O)[C@H](CCCCN)NC(=O)[C@H](CCCNC(=N)N)NC(=O)[C@H](Cc1ccc(OC)cc1)NC(=O)[C@H](CCCCNC(=N)N)NC(=O)[C@H](CC(N)=O)NC(=O)[C@@H](NC(=O)[C@H](Cc1ccc(Cl)cc1)NC(=O)[C@@H](NC(=O)[C@H](C)NC(=O)[C@H](CC(=O)O)NC(=O)[C@@H](CCCNC(=N)N)NC(=O)[C@H](Cc1ccc(O)cc1)NC(=O)CCCCCCCCCCCNC(=O)Cc1ccccc1)[C@@H](C)CC)[C@@H](C)O)C(C)C)[C@@H](C)CC)C(=O)N[C@H](CCCNC(=N)N)C(=O)N[C@@H](CCCCNC(=N)N)C(=O)NCCCCCCCCCCCC(N)=O` [AVR-332] ({PhAc-12Ado}-Y[dR]DAI[Phe(4-Cl)]TN[hArg]Y(Me)RKVL[Abu]QLSARKLLQDI[Nle][dR][hArg][12Ado]-NH2) are 1.643 and 0.34 nM.
